# US9192667B2, “Method of treating cancer by administering CSF-1R antibodies and a TLR9 agonist” (Hoffmann-La Roche Inc., priority 2013, dated 2015)
# Experiments:
# [1] = SCID mouse; cited from earlier work
# [2] = system: MC38 mouse CRC in vivo model; assay: Tumor growth inhibition in subcutaneous syngeneic MC38 colon carcinoma model; conditions: antibody 30 mg/kg i.p. weekly, CpG ODN 1826 100 μg peritumoral 1×; for TGI (day 24): versus control antibody
# Description: Additionally to the assessment of median tumor volume after 2 weeks of treatment the progression of individual tumors in the study was followed until progression ≧700 mm3 (FIG. 1 (CpG is TLR9 agonist CpG ODN 1826) and Table 11)
# [3] = phase 1/1 I clinical study; cited from earlier work
# lymphoma = conditions: phase 1/1 I clinical study; cited from earlier work
substance,measurement,setting,value
"CpG-685: synthetic, 21-mer fully phosphorothioated CpG ODN 5′-tcgtcgacgtcgttcgttctc-3′ (SEQ ID NO: 93), SBI Biotech (DNA TCGTCGACGTCGTTCGTTCTC; DNA, all phosphorothioate, methylation of C not given here)",antitumor effects,[1],showed antitumor effects
CpG ODN 1826,Median time to progression TV > 700 mm3,[2],24 days
same,TCR (day 24),[2],0.28
same,TGI (day 24),[2],74%
same,TGI (day 24),[2]; listed as TLR9 agonist (CpG),73%
d(P-Thio)(TCGTCGTTTTGTCGTTTTGTCGTT)DNA [CpG-7909],tolerability,[3],well tolerated
same,antilymphoma activity,lymphoma,antilymphoma activity
